According to EP3474833B1, “CINNAMYL ALCOHOL DERIVATIVE FOR USE IN REDUCING APPETITE AND FOR GENERATING THE FEELING OF BEING FULL” (Symrise AG, priority 2016, dated 2017):

Test system: humane Neuroblastomazellen (SH-SY5Y, ATCC Nummer CRL-2266)
Test: Serotonin release in SH-SY5Y neuroblastoma cells (Serotonin-ELISA)
Type: cell-based, human
Details: SH-SY5Y-Zellen, 10 µM test substance, 5 min stimulation, Krebs-Ringer-HEPES Puffer pH 6,2; relative to 10 µM Nonivamid
Method: Als Zellmodell für die Ausschüttung des Neurotransmitters Serotonin werden humane Neuroblastomazellen (SH-SY5Y, ATCC Nummer CRL-2266) verwendet. Die Kultivierung erfolgt bei 37 °C und 5 % CO2-Gehalt mit einer Mischung, die zu gleichen Teilen aus Eagle's Minimum Essential Medium (EMEM) und F12 Medium (jeweils mit 10 % FBS und 1 % Penicillin/Streptomycin) besteht. Zur Bestimmung der Serotoninfreisetzung werden die Zellen mit Trypsin geerntet und nach einer Vitalitätsprüfung durch Trypanblaufärbung in definierter Zellzahl in 24-well Platten (Corning cell culture treated) ausgesät.
Nach 5-minütiger Stimulierung von 90.000 humanen Neuroblastomazellen (SH SY5Y) mit 60 µl Krebs-Ringer-HEPES Puffer, 0,1 % Ascorbinsäure, pH 6,2, mit oder ohne Zusatz von 10 µM einer der Verbindungen 1-4, , bzw. 10 µM Nonivamid als Positivkontrolle wird der Serotoningehalt mit Hilfe eines enzymbasierten Nachweisverfahrens (Serotonin-ELISA sensitiv, DLD Diagnostica, Hamburg, Deutschland) ermittelt. Tabelle 1. Serotonin-Freisetzung in SH-SY5Y-Zellen nach Stimulierung mit je 10 µM von Verbindungen nach Formel I.

Compound | Serotoninfreisetzung [% der Positivkontrolle]
CCCCCCCCC(=O)NCc1ccc(O)c(OC)c1 [Nonivamid, N-Nonanoylvanillylamin, reference compound] | 100 % der Positivkontrolle
OCC=Cc1ccccc1 [Verbindung 1, Cinnamylalkohol] | 129.29 % der Positivkontrolle
CCC(=O)OCC=Cc1ccccc1 [Verbindung 4, Cinnamylpropionat] | 115.57 % der Positivkontrolle
CC(C)C(=O)OCC=Cc1ccccc1 [Verbindung 6, Cinnamylisobutyrat] | 120.69 % der Positivkontrolle
CC(C)CC(=O)OC/C=C/c1ccccc1 [Verbindung 7, Cinnamylisovalerianat] | 118.47 % der Positivkontrolle
O=C(C=Cc1ccccc1)OCC=Cc1ccccc1 [Verbindung 11, Cinnamylcinnamat] | 120.83 % der Positivkontrolle
